pIC50: −log10 of the molar value.

The subject of this assay is mouse L1210 leukemic cells. The assay can be described thus: In vitro cytotoxicity, inhibition of cell growth (cell counter). The assay is classed as cell-based. Particulars: read-out: IC50 (concentration for which 50% inhibition of cell growth is obtained). The protocol: The cytotoxic activity in vitro was evaluated by the determination of the IC50 (concentration for which 50% inhibition of cell growth is obtained) on mouse L1210 leukemic cells.
The IC50 is evaluated by means of a cell counter.
Regarding `C1CNP2(=NP(N3CC3)(N3CC3)=NP(N3CC3)(N3CC3)=N2)OC1` (centres unmarked) [Compound 3, 2,2,4,4-Tetra-1-aziridinyl-2,2,4,4-tetrahydro-7-oxa-1,3,5,11-tetraaza-2,4,6λ^5-triphosphaspiro-[5,5]-undeca-1,3,5-triene], the pIC50 was 5.64.

`C1CCC(N2CCCOP23=NP(N2CC2)(N2CC2)=NP(N2CC2)(N2CC2)=N3)CC1` (centres unmarked) [Compound 4, 11-Cyclohexyl-2,2,4,4-tetra-1-aziridinyl-2,2,4,4-tetrahydro-7-oxa-1,3,5,11-tetraaza-2,4,6λ^5-triphosphaspiro-[5,5]-undeca-1,3,5-triene]: the pIC50 was 5.00.

Take `c1ccc(CN2CCOP23=NP(N2CC2)(N2CC2)=NP(N2CC2)(N2CC2)=N3)cc1` (centres unmarked) [Compound 5, 4-Phenylmethyl-7,7,9,9-tetra-1-aziridinyl-7,7,9,9-tetrahydro-1-oxa-4,6,8,10-tetraaza-5λ^5,7,9-triphosphaspiro-[4,5]-deca-5,7,9-triene]: the pIC50 was 5.24.

`c1ccc(CN2CCCOP23=NP(N2CC2)(N2CC2)=NP(N2CC2)(N2CC2)=N3)cc1` (centres unmarked) [Compound 6, 11-Phenylmethyl-2,2,4,4-tetra-1-aziridinyl-2,2,4,4-tetrahydro-7-oxa-1,3,5,11-tetraaza-2,4,6λ^5-triphosphaspiro-[5,5]-undeca-1,3,5-triene]: the pIC50 was 5.24. Turning to `c1ccc(CCN2CCCOP23=NP(N2CC2)(N2CC2)=NP(N2CC2)(N2CC2)=N3)cc1` (centres unmarked) [Compound 8, 11-(2-Phenylethyl)-2,2,4,4-tetra-1-aziridinyl-2,2,4,4-tetrahydro-7-oxa-1,3,5,11-tetraaza-2,4,6λ^5-triphosphaspiro-[5,5]-undeca-1,3,5-triene], the pIC50 was 5.19.

`C1COP2(=NP(N3CC3)(N3CC3)=NP(N3CC3)(N3CC3)=N2)N1` (centres unmarked) [Compound 2, 7,7,9,9-Tetra-1-aziridinyl-7,7,9,9-tetrahydro-1-oxa-4,6,8,10-tetraaza-5λ^5,7,9-triphosphaspiro-[4,5]-deca-5,7,9-triene]: the pIC50 was 5.06. As for `c1ccc(CCN2CCOP23=NP(N2CC2)(N2CC2)=NP(N2CC2)(N2CC2)=N3)cc1` (centres unmarked) [Compound 7, 4-(2-Phenylethyl)-7,7,9,9-tetra-1-aziridinyl-7,7,9,9-tetrahydro-1-oxa-4,6,8,10-tetraaza-5λ^5,7,9-triphosphaspiro-[4,5]-deca-5,7,9-triene], the pIC50 was 5.11. As for `CN1CCOP12=NP(N1CC1)(N1CC1)=NP(N1CC1)(N1CC1)=N2` (centres unmarked) [Compound 1, 4-methyl-7,7,9,9-tetra-1-aziridinyl-7,7,9,9-tetrahydro-1-oxa-4,6,8,10-tetraaza-5λ^5-7,9-triphosphaspiro-[4,5]-deca-5,7,9-triene], the figure is 5.05.
